Results from patent US11065249B2, “Diacylglycerol acyl transferase 2 inhibitor” (Pfizer Inc., priority 2019, dated 2021).
Values after ≈ are worked out from the molar mass of the structure shown. Structures can show the parent of a compound that is named as a salt.

Columns and labels:
[1] = Thermodynamic solubility in various biorelevant media (PBS, SGN, FaSSIF, FeSSIF); format: physicochemical
Procedure: The solubility of active pharmaceutical ingredients is an important characteristic in determining biological performance and ease of formulation during drug development, with high solubility being preferred (Klein, S. 2010, The AAPS Journal, 12, 397-406; Di, L., et al 2012, Drug Disc. Today, 17.486-495). A test sample of crystalline solid (˜7 mg) was combined in a vial with 1 mL of the relevant buffer solution and the mixture vortexed to combine. If the solid dissolved completely, additional solid was added with vortexing until a saturated solution was obtained. The saturated solution/solid mixture was capped and subjected to temperature cycling as follows: 1 min at 25° C.; 8 h at 40° C.; 5 h at 15° C. and 12 h at 25° C. The mixture was filtered in a centrifugal filtration device (0.22 μm PVDF filter, MilliporeSigma, Milwaukee, Wis.) at 13,000 rpm and the concentration of the test compound in the filtrate was determined by HPLC/UPLC with reference to a three point standard curve. Phosphate buffered saline (PBS, pH 6.8, 50 mM phosphate buffer, 250 mM NaCl). Simulated gastric fluid (SGN pH 1.2, USP recipe). Fasted state simulated intestinal fluid (FaSSIF, 3 mM sodium taurocholate, 0.75 mM phospholipid from soybean lecithin, 50 mM phosphate buffer, ionic strength adjusted to 250 mM with NaCl, pH 6.8) and fed state simulated intestinal fluid (FeSSIF, 15 mM sodium taurocholate, 3.75 mM phospholipid from soybean lecithin, 144 mM acetic acid, 50 mM phosphate buffer, ionic strength adjusted to 250 mM with NaCl, pH 6.8).

human hepatocytes = assay: High throughput determination of intrinsic clearance in human hepatocytes; format: in vitro ADME; conditions: high throughput human hepatocyte assay, 1 μM test compound; mean +/− Std Dev
Procedure: (§1) The incubation was carried out at 37° C. […] The samples were centrifuged (Eppendorf, Hauppauge, N.Y.) at 3000 rpm for 5 min at 4° C.

[2] = Determination of pKa (capillary electrophoresis, Analiza); format: physicochemical; conditions: most basic pKa, mean
[3] = Intrinsic clearance in human liver microsomes; format: in vitro ADME; conditions: 1 μM test compound, mean +/− STD Dev; for CLint (+/−STD Dev): human liver microsome assay; for microsomal CLint at 1 μM: human, pooled human liver microsomes, pH 7.4, human liver microsome assay
Procedure: The incubations were conducted at 37° C. […] (Sorvall R C 3C Plus, Thermo Scientific, Waltham, Mass.).

human DGAT2 (hDGAT2) = human DGAT2 (hDGAT2) (Homo sapiens (Human), UniProt Q96PD7); assay: In vitro DGAT2 assay, determination of IC50 values for DGAT2 inhibitors; format: biochemical; conditions: inhibition of DGAT2, hDGAT2 membrane fractions; geometric mean
Procedure: Recombinant baculovirus for the FLAG-tagged hDGAT2 was generated in SF9 insect cells using Bac-to-Bac baculovirus expression system (Invitrogen) according to the manufacturer's protocol. For the expression of hDGAT2, SF9 cells (20 L) grown in Sf900II media were infected with hDGAT2 baculovirus at a multiplicity of infection of 1 in a Wave Bioreactor System 20/50P wave bag (GE Healthcare). After 40 hours of infection, the cells were then harvested by centrifugation at 5,000×g. The cell pellets were washed by resuspending in phosphate buffered saline (PBS) and collected by centrifugation at 5,000×g. The cell paste was flash frozen in liquid N2 and stored at −80° C. until needed. All operations below were at 4° C. unless otherwise noted. The cells were resuspended in lysis buffer (50 mM Tris-HCl, pH 8.0, 250 mM sucrose) including 1 mM ethylenediaminetetraacetic acid (EDTA) and the complete protease inhibitor cocktail (Roche Diagnostics) at a ratio of 3 mL buffer per 1 g cell paste. The cells were lysed by dounce homogenizer. The cell debris was removed by centrifugation at 1,000×g for 20 min, and the supernatant was centrifuged at 100,000×g for 1 hour. The resulting pellet was rinsed three times by filling ultracentrifuge tubes to the top with ice cold PBS before decanting. The washed pellet was resuspended with gentle stirring for 1 hour in lysis buffer containing 8 mM 3-[(3-cholamidopropyl)dimethylammonio]-1-propanesulfonate (CHAPS) at a ratio of 1 mL buffer per 1 g of original cell paste and centrifuged again at 100,000×g for 1 hour. The resulting supernatant was aliquotted, flash frozen in liquid N2, and stored at −80° C. until use.
To 1 μL of compounds dissolved in 100% DMSO and spotted at the bottom of each well, 5 μL of 0.04% bovine serum albumin (BSA) (fatty acid free, Sigma Aldrich) was added and the mixture was incubated at room temperature for 15 minutes. hDGAT2 membrane fractions were diluted in 100 mM Hepes-NaOH, pH 7.4, 20 mM MgCl2 containing 200 nM methyl arachidonyl fluorophosphonate (Cayman Chemical, dried from ethyl acetate stock solution under argon gas and dissolved in DMSO as 5 mM stock). 10 μL of this enzyme working solution was added to the plates and incubation continued for 2 hours at room temperature. DGAT2 reactions were initiated by the addition of 4 μL of substrates containing 30 μM [1-^14C]decanoyl-CoA (custom-synthesized by Perkin Elmer, 50 mCi/mmol) and 125 μM 1,2-didecanoyl-sn-glycerol (Avanti Polar Lipids) dissolved in 12.5% acetone. The reaction mixtures were incubated at room temperature for 40 min and the reactions were stopped by addition of 5 μL of 1% H3PO4. After the addition of 45 μL MicroScint-E (Perkin-Elmer), plates were sealed with Top Seal-A covers (Perkin-Elmer) and phase partitioning of substrates and products was achieved using a HT-91100 microplate orbital shaker (Big Bear Automation, Santa Clara, Calif.). Plates were centrifuged at 2,000×g for 1 minute in an Allegra 6R Centrifuge (Beckman Coulter) and then were sealed again with fresh covers before reading in a 1450 Microbeta Wallac Trilux Scintillation Counter (Perkin Elmer). DGAT2 activity was measured by quantifying the generated product [^14C]tridecanoylglycerol in the upper organic phase.
Inhibitors were tested at eleven different concentrations to generate IC50 values for each compound.

[4] = target: DGAT2 in human hepatocytes (Homo sapiens (Human), UniProt Q96PD7); assay: Determination of IC50 values for DGAT2 inhibitors in human hepatocytes; format: cell-based; conditions: inhibition of DGAT2 in human hepatocytes; geometric mean
Procedure: For evaluation of the effects of DGAT2 inhibitors in a cell-based setting, cryopreserved human hepatocytes (Lot DOO, Celsis, Baltimore, Md.) were thawed and plated onto type I collagen-coated plates according to the manufacturer's instructions. After 18 hours overnight recovery period, the cells were overlayed with media containing 250 μg/mL Geltrex Basement Membrane Matrix (Thermo Fisher). The following day, media was aspirated and replaced with serum-free Williams Media E (Thermo Fisher) containing 400 μM sodium dodecanoate (Sigma-Aldrich, St. Louis, Mo.) and 2 mM GlutaMAX (Thermo Fisher). […] DGAT2 inhibitors were then added to the desired final concentration. After a 15 minute preincubation, 0.2 μCi [^14C(U)]-glycerol (Perkin Elmer) was added to each well followed by a 3 hour incubation. At this point the media was removed, and the cells lysed via orbital shaking in isopropyl alcohol:tetrahydrofuran (9:1) for 15 minutes prior to centrifugation at 3000 rpm for 10 minutes. Radiolabeled lipids were resolved using a solvent system by thin layer chromatography with the solvent consisting of hexanes:diethyl ether:glacial acetic acid (75:23:2, v/v/v). After separation, radiolabeled lipids were visualized using the Typhoon 9500 phosphorimaging system (GE). The half maximal inhibitory concentrations (IC50 values) were determined by nonlinear regression analysis of the % inhibition dose response curve using GraphPad Prism (GraphPad Software, Inc., La Jolla, Calif.).
Table 5 below provides the IC50 values of selected Examples for inhibition of DGAT2 in human hepatocytes in accordance with the above-described assay. Results are reported as geometric mean IC50 values, with the number of replicates (n) shown.

[5] = High throughput determination of intrinsic clearance in human hepatocytes; format: in vitro ADME; conditions: human, pooled cryopreserved human hepatocytes (suspension), high throughput human hepatocyte assay, 1 μM test compound; mean +/− Std Dev
Procedure: as §1

Sequence of human DGAT2 (hDGAT2) (Q96PD7 whole entry): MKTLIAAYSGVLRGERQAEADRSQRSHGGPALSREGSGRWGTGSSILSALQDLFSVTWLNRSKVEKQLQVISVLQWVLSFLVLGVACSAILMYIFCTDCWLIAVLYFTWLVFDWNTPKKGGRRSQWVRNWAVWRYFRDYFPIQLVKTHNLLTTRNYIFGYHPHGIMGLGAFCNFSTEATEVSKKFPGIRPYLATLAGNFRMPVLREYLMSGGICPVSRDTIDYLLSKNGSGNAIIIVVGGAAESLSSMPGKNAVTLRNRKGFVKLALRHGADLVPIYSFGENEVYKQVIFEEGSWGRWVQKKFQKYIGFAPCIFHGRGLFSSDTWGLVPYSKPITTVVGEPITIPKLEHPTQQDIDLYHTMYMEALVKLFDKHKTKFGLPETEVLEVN
Sequence of DGAT2 in human hepatocytes (Q96PD7 whole entry): as above

SMILES	CLint (+/−Std Dev) (human hepatocytes)	CLint (+/−STD Dev) [3]	IC50 (human DGAT2 (hDGAT2))	hepatocyte CLint at 1 μM [5]	microsomal CLint at 1 μM [3]	further results
CCOc1cccnc1Oc1cncc(-c2ncc(C(=O)N[C@H]3CCOC3)cn2)c1 [WO2018033832 Ex. 1, Form 2]						Solubility ([1]; FaSSIF pH 6.8): 93 µg/mL (≈ 228 µM); Solubility ([1]; PBS, pH 6.8): 60 µg/mL (≈ 147 µM); Solubility ([1]; SGN pH 1.2): 1082 µg/mL (≈ 2660 µM)
CCOc1cccnc1Oc1cncc(-c2ncc(C(=O)N[C@@H]3CNCC[C@@H]3F)cn2)c1 [Example 3, 2-{5-[(3-Ethoxypyridin-2-yl)oxy]pyridin-3-yl}-N-[(3R,4S)-4-fluoropiperidin-3-yl]pyrimidine-5-carboxamide, bis(trifluoroacetate) salt]	<1.9 +/− 0.35 μL/min/10^6 cells	<7 µL/min/mg				Basic pKa [2]: 8.1
CCOc1cc(F)cnc1Oc1cncc(-c2ncc(C(=O)N[C@@H]3CNCC[C@@H]3F)cn2)c1 [Example 1, 2-{5-[(3-Ethoxy-5-fluoropyridin-2-yl)oxy]pyridin-3-yl}-N-[(3R,4S)-4-fluoropiperidin-3-yl]pyrimidine-5-carboxamide, bis(trifluoroacetate) salt]	<2.7 +/− 0.72 μL/min/10^6 cells	<7 µL/min/mg	5.8 nM			Basic pKa [2]: 7.7
CCOc1cccnc1Oc1cncc(-c2ncc(C(=O)N[C@H]3CNC[C@@H](F)C3)cn2)c1 (racemic) [Example 25, rac-2-{5-[(3-ethoxypyridin-2-yl)oxy]pyridin-3-yl}-N-[(3R,5S)-5-fluoropiperidin-3-yl]pyrimidine-5-carboxamide, trifluoroacetate salt]			200 nM	6.5 µL/min/1e6 cells	11 µL/min/mg	IC50 [4]: > 130 nM; pKa [2]: 6.8
CCOc1cccnc1Oc1cncc(-c2ncc(C(=O)NC3CCS(=O)(=O)C3)cn2)c1 (stereo not drawn) [WO2018033832 Ex. 3.3]	5.1 +/− 0.69 μL/min/10^6 cells	<8 µL/min/mg				
CCOc1cccnc1Oc1cncc(-c2ncc(C(=O)N[C@H]3CNC[C@H](F)C3)cn2)c1 [Example 7, 2-{5-[(3-ethoxypyridin-2-yl)oxy]pyridin-3-yl}-N-[(3R,5R)-5-fluoropiperidin-3-yl]pyrimidine-5-carboxamide, trifluoroacetate salt]				< 1.8 µL/min/1e6 cells	< 7 µL/min/mg	IC50 [4]: 100 nM; pKa [2]: 7.5
CCOc1cc(F)cnc1Oc1cncc(-c2ncc(C(=O)N[C@H]3CCOC3)cn2)c1 [WO2018033832 Ex. 8]	9.3 +/− 0.52 μL/min/10^6 cells	<9.6 µL/min/mg				
CCOc1cccnc1Oc1cncc(-c2ncc(C(=O)N[C@H]3CCOC3)cn2)c1 [WO2018033832 Ex. 1, Form 1]						Solubility ([1]; FaSSIF pH 6.8): 69 µg/mL (≈ 169 µM); Solubility ([1]; PBS, pH 6.8): 43 µg/mL (≈ 106 µM); Solubility ([1]; SGN pH 1.2): 78 µg/mL (≈ 191 µM)
CCOc1cccnc1Oc1cncc(-c2ncc(C(=O)N[C@H]3CC[C@H](C(F)(F)F)NC3)cn2)c1 (racemic) [Example 9, rac-2-{5-[(3-ethoxypyridin-2-yl)oxy]pyridin-3-yl}-N-[(3R,6S)-6-(trifluoromethyl)piperidin-3-yl]pyrimidine-5-carboxamide or rac-2-{5-[(3-ethoxypyridin-2-yl)oxy]pyridin-3-yl}-N-[(3R,6R)-6-(trifluoromethyl)piperidin-3-yl]pyrimidine-5-carboxamide]			19 nM	54 µL/min/1e6 cells	> 290 µL/min/mg	pKa [2]: 4
CCOc1cccnc1Oc1cncc(-c2ncc(C(=O)NC3(C)CCS(=O)(=O)C3)cn2)c1 (stereo not drawn) [WO2018033832 Ex. 3.1]	9.3 +/− 1.1 μL/min/10^6 cells	30 µL/min/mg				
CCOc1cccnc1Oc1cncc(-c2ncc(C(=O)NC3CCC(C(F)(F)F)NC3)cn2)c1 (single isomer, unassigned; ent-1) [Example 10, 2-{5-[(3-ethoxypyridin-2-yl)oxy]pyridin-3-yl}-N-[6-(trifluoromethyl)piperidin-3-yl]pyrimidine-5-carboxamide, trifluoroacetate salt, ENT-1]			39 nM	27 µL/min/1e6 cells	270 µL/min/mg	Basic pKa [2]: 4.7
